Test results from PubChem BioAssay AID1919001 (Molecular Pharmacology Branch, DTP, NCI, 2023).
pIC50: −log10 of the molar value. Values joined by “and” are separate entries in the source; they are usually repeats but may differ in a detail not shown here. Identical values can stand only once.

Test system: 699152-130-R-J1-PDC complex spheroid growth
Experiment: Anticancer human tumor 699152-130-R-J1-PDC patient-derived pancreatic carcinoma cell line growth inhibition [AhR]
Details: for viability, T/C: stronger effect = lower value
Outline: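 Agents were dosed in half-log steps down from roughly clinical Cmax, or from 10 microM where Cmax was unknown, alone and with AhR antagonists. Read-out: percent test/control growth of tumor spheroids containing HUVEC and MSC stromal cells.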

[1] = curve of first compound, second compound 0.1 µM
[2] = curve of first compound, second compound 0.316 µM
[3] = curve of first compound, second compound 1 µM
[4] = curve of first compound, second compound 3.16 µM
[5] = curve of first compound, second compound 10 µM
[6] = second compound 0.1 µM, first compound 0.0316 µM
[7] = second compound 0.1 µM, first compound 0.1 µM
[8] = second compound 0.1 µM, first compound 0.316 µM
[9] = second compound 0.1 µM, first compound 1 µM
[10] = second compound 0.1 µM, first compound 3.16 µM
[11] = second compound 0.1 µM, first compound 10 µM
[12] = second compound 0.316 µM, first compound 0.0316 µM
[13] = second compound 0.316 µM, first compound 0.1 µM
[14] = second compound 0.316 µM, first compound 0.316 µM
[15] = second compound 0.316 µM, first compound 1 µM
[16] = second compound 0.316 µM, first compound 3.16 µM
[17] = second compound 0.316 µM, first compound 10 µM
[18] = second compound 1 µM, first compound 0.0316 µM
[19] = second compound 1 µM, first compound 0.1 µM
[20] = second compound 1 µM, first compound 0.316 µM
[21] = second compound 1 µM, first compound 1 µM
[22] = second compound 1 µM, first compound 3.16 µM
[23] = second compound 1 µM, first compound 10 µM
[24] = second compound 3.16 µM, first compound 0.0316 µM
[25] = second compound 3.16 µM, first compound 0.1 µM
[26] = second compound 3.16 µM, first compound 0.316 µM
[27] = second compound 3.16 µM, first compound 1 µM
[28] = second compound 3.16 µM, first compound 3.16 µM
[29] = second compound 3.16 µM, first compound 10 µM
[30] = second compound 10 µM, first compound 0.0316 µM
[31] = second compound 10 µM, first compound 0.1 µM
[32] = second compound 10 µM, first compound 0.316 µM
[33] = second compound 10 µM, first compound 1 µM
[34] = second compound 10 µM, first compound 3.16 µM
[35] = second compound 10 µM, first compound 10 µM
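Further: compound exposure lasted 7 days after spheroids had grown for 3 days.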

`CC(C)c1c(-c2ccccc2)nc2c(C#N)c[nH]n2c1=O` + Cc1cncc(-c2nc(NCCc3c[nH]c4ccccc34)c3ncn(C(C)C)c3n2)c1 showed a pIC50 [1] of less than 5.00, a pIC50 [2] of less than 5.00 and a pIC50 [3] of less than 5.00. The pIC50 [4] was less than 5.00, the pIC50 [5] was greater than 7.50 and the viability, T/C [6] was 98.9%. The viability, T/C [7] was 103%, the viability, T/C [8] was 101% and the viability, T/C [9] was 107%. It also gave a viability, T/C [10] of 107%, a viability, T/C [11] of 111% and a viability, T/C [12] of 104%. The viability, T/C [13] was 109%, the viability, T/C [14] was 101% and the viability, T/C [15] was 116%. It also gave a viability, T/C [16] of 96.4%, a viability, T/C [17] of 96.8% and a viability, T/C [18] of 118%. It also gave a viability, T/C [19] of 118%, a viability, T/C [20] of 121% and a viability, T/C [21] of 125%. The viability, T/C [22] was 108%, the viability, T/C [23] was 101% and the viability, T/C [24] was 60.4%. For the same compound, the viability, T/C [25] was 66.4%, the viability, T/C [26] was 65% and the viability, T/C [27] was 58.9%. It also gave a viability, T/C [28] of 58.2%, a viability, T/C [29] of 66.4% and a viability, T/C [30] of 4.82%. For the same compound, the viability, T/C [31] was 4.89%, the viability, T/C [32] was 5.56% and the viability, T/C [33] was 4.11%. For the same compound, the viability, T/C [34] was 4.63% and the viability, T/C [35] was 6.54%.

For `CC[C@@]1(O)C(=O)OCc2c1cc1n(c2=O)Cc2cc3c(CN(C)C)c(O)ccc3nc2-1` + CC(CO)NC(=O)c1cc(-c2ccc(Cl)cc2)nn(-c2cnn(C)c2)c1=O, the pIC50 [1] was less than 7.00, the pIC50 [2] was less than 7.00 and the pIC50 [3] was less than 7.00. The pIC50 [4] was less than 7.00, the pIC50 [5] was less than 7.00 and the viability, T/C (second compound 0.1 µM, first compound 0.000316 µM) was 101%. For the same compound, the viability, T/C (second compound 0.1 µM, first compound 0.001 µM) was 102%, the viability, T/C (second compound 0.1 µM, first compound 0.00316 µM) was 112% and the viability, T/C (second compound 0.1 µM, first compound 0.01 µM) was 98.6%. The viability, T/C [6] was 86.7%, the viability, T/C [7] was 64.7% and the viability, T/C (second compound 0.316 µM, first compound 0.000316 µM) was 94.1%. The viability, T/C (second compound 0.316 µM, first compound 0.001 µM) was 107%, the viability, T/C (second compound 0.316 µM, first compound 0.00316 µM) was 93% and the viability, T/C (second compound 0.316 µM, first compound 0.01 µM) was 83.5%. It also gave a viability, T/C [12] of 76.3%, a viability, T/C [13] of 60.3% and a viability, T/C (second compound 1 µM, first compound 0.000316 µM) of 96.8%. For the same compound, the viability, T/C (second compound 1 µM, first compound 0.001 µM) was 108%, the viability, T/C (second compound 1 µM, first compound 0.00316 µM) was 92.5% and the viability, T/C (second compound 1 µM, first compound 0.01 µM) was 79.4%. The viability, T/C [18] was 83.6%, the viability, T/C [19] was 62.5% and the viability, T/C (second compound 3.16 µM, first compound 0.000316 µM) was 89.4%. The viability, T/C (second compound 3.16 µM, first compound 0.001 µM) was 102%, the viability, T/C (second compound 3.16 µM, first compound 0.00316 µM) was 93.7% and the viability, T/C (second compound 3.16 µM, first compound 0.01 µM) was 84%. For the same compound, the viability, T/C [24] was 71.8%, the viability, T/C [25] was 60.7% and the viability, T/C (second compound 10 µM, first compound 0.000316 µM) was 102%. It also gave a viability, T/C (second compound 10 µM, first compound 0.001 µM) of 103%, a viability, T/C (second compound 10 µM, first compound 0.00316 µM) of 86.3% and a viability, T/C (second compound 10 µM, first compound 0.01 µM) of 80.7%. For the same compound, the viability, T/C [30] was 72.3% and the viability, T/C [31] was 57%.

Compound `Nc1ncn(C2CC(O)C(CO)S2)c(=O)n1` (centres undefined) + Cc1ccccc1N=Nc1ccc(NC(=O)c2ccnn2C)c(C)c1 has a pIC50 [1] of less than 6.52, a pIC50 [2] of less than 6.52 and a pIC50 [3] of less than 6.52. For the same compound, the pIC50 [4] was less than 6.52, the pIC50 [5] was less than 6.52 and the viability, T/C (second compound 0.1 µM, first compound 0.000949 µM) was 99.6%. For the same compound, the viability, T/C (second compound 0.1 µM, first compound 0.003 µM) was 98.9%, the viability, T/C (second compound 0.1 µM, first compound 0.00949 µM) was 99% and the viability, T/C (second compound 0.1 µM, first compound 0.03 µM) was 95.5%. The viability, T/C (second compound 0.1 µM, first compound 0.0949 µM) was 102%, the viability, T/C (second compound 0.1 µM, first compound 0.3 µM) was 102% and the viability, T/C (second compound 0.316 µM, first compound 0.000949 µM) was 101%. The viability, T/C (second compound 0.316 µM, first compound 0.003 µM) was 105%, the viability, T/C (second compound 0.316 µM, first compound 0.00949 µM) was 95.3% and the viability, T/C (second compound 0.316 µM, first compound 0.03 µM) was 105%. It also gave a viability, T/C (second compound 0.316 µM, first compound 0.0949 µM) of 103%, a viability, T/C (second compound 0.316 µM, first compound 0.3 µM) of 90.4% and a viability, T/C (second compound 1 µM, first compound 0.000949 µM) of 101%. For the same compound, the viability, T/C (second compound 1 µM, first compound 0.003 µM) was 101%, the viability, T/C (second compound 1 µM, first compound 0.00949 µM) was 103% and the viability, T/C (second compound 1 µM, first compound 0.03 µM) was 107%. For the same compound, the viability, T/C (second compound 1 µM, first compound 0.0949 µM) was 103%, the viability, T/C (second compound 1 µM, first compound 0.3 µM) was 89.8% and the viability, T/C (second compound 3.16 µM, first compound 0.000949 µM) was 90.2%. The viability, T/C (second compound 3.16 µM, first compound 0.003 µM) was 99%, the viability, T/C (second compound 3.16 µM, first compound 0.00949 µM) was 104% and the viability, T/C (second compound 3.16 µM, first compound 0.03 µM) was 101%. For the same compound, the viability, T/C (second compound 3.16 µM, first compound 0.0949 µM) was 100%, the viability, T/C (second compound 3.16 µM, first compound 0.3 µM) was 95.3% and the viability, T/C (second compound 10 µM, first compound 0.000949 µM) was 114%. For the same compound, the viability, T/C (second compound 10 µM, first compound 0.003 µM) was 116%, the viability, T/C (second compound 10 µM, first compound 0.00949 µM) was 122% and the viability, T/C (second compound 10 µM, first compound 0.03 µM) was 111%. The viability, T/C (second compound 10 µM, first compound 0.0949 µM) was 114% and the viability, T/C (second compound 10 µM, first compound 0.3 µM) was 107%.

Work on `O=C(C=Cc1cccc(S(=O)(=O)Nc2ccccc2)c1)NO` + CC(CO)NC(=O)c1cc(-c2ccc(Cl)cc2)nn(-c2cnn(C)c2)c1=O yielded a pIC50 [1] of less than 5.00, a pIC50 [2] of less than 5.00 and a pIC50 [3] of less than 5.00. The pIC50 [4] was less than 5.00, the pIC50 [5] was less than 5.00 and the viability, T/C [6] was 102%. It also gave a viability, T/C [7] of 102%, a viability, T/C [8] of 111% and a viability, T/C [9] of 112%. For the same compound, the viability, T/C [10] was 96.8%, the viability, T/C [11] was 79.1% and the viability, T/C [12] was 92.8%. For the same compound, the viability, T/C [13] was 107%, the viability, T/C [14] was 111% and the viability, T/C [15] was 106%. For the same compound, the viability, T/C [16] was 102%, the viability, T/C [17] was 76.2% and the viability, T/C [18] was 90.2%. For the same compound, the viability, T/C [19] was 96.8%, the viability, T/C [20] was 104% and the viability, T/C [21] was 101%. It also gave a viability, T/C [22] of 94.3%, a viability, T/C [23] of 82.6% and a viability, T/C [24] of 84.2%. The viability, T/C [25] was 83.8%, the viability, T/C [26] was 93.9% and the viability, T/C [27] was 95.4%. It also gave a viability, T/C [28] of 84%, a viability, T/C [29] of 83.9% and a viability, T/C [30] of 85%. It also gave a viability, T/C [31] of 95.4%, a viability, T/C [32] of 81.7% and a viability, T/C [33] of 89.4%. For the same compound, the viability, T/C [34] was 90.5% and the viability, T/C [35] was 79.4%.

With `COc1cc(Nc2ncc3c(n2)-c2ccc(Cl)cc2C(c2c(F)cccc2OC)=NC3)ccc1C(=O)O` the viability, T/C (compound 0.0316 µM) was 97.6% and 87.1% and 94%, the viability, T/C (compound 0.1 µM) was 71.4% and 74.1% and 85.8% and the viability, T/C (compound 0.316 µM) was 80.8% and 74.1% and 72%. The viability, T/C (compound 1 µM) was 60.1% and 59.5% and 65.4%, the viability, T/C (compound 3.16 µM) was 58.4% and 63% and 64.4% and the viability, T/C (compound 10 µM) was 55.9% and 54.8% and 60.7%. It also gave a pIC50 (curve of compound) of less than 5.00.

For `CC1COCCN1c1cc(C2(S(C)(=N)=O)CC2)nc(-c2ccnc3[nH]ccc23)n1` (centres undefined), the viability, T/C (compound 0.0316 µM) was 100% and 99.4% and 98.3%, the viability, T/C (compound 0.1 µM) was 103% and 95.1% and 112% and the viability, T/C (compound 0.316 µM) was 91.5% and 95.4% and 103%. The viability, T/C (compound 1 µM) was 96.7% and 88.4% and 104%, the viability, T/C (compound 3.16 µM) was 93% and 82.9% and 89.2% and the viability, T/C (compound 10 µM) was 78% and 67.5% and 71.1%. For the same compound, the pIC50 (curve of compound) was less than 5.00.
